From patent US11261454B2, “Method for introducing a polynucleotide into non-adhesively growing plant cells” (ScreenSYS GmbH, priority 2010, dated 2022)
Each block holds one molecule with its values, some of them ahead of it.

What was measured:
auxin sensor construst = assay: Luciferase activity measurement with auxin sensor construct (firefly/renilla ratio); assay type: cell-based
Text: Our further aim to combine PPTT with amiRNA and other functional screenings such as split-GFP, split-YFP etc. Since co-expression of vectors works perfect, split screenings could be done straight away using confirmed interacting pair. Transformation with the luciferase reporter and subsequent luciferase activity measurements were successfully tested using auxin sensor construst (FIG. 19).

PIN1 = assay: Expression of amiR^PIN1 in stable transgenic lines, plant phenotypes; assay type: in vivo, Arabidopsis (Col-0 wild-type background); conditions: independent lines
[1] = tested on: protoplasts from wild type tobacco; assay: Quantitative analysis of auxin mediated cell expansion of immobilised tobacco protoplasts (automated imaging); assay type: cell-based; conditions: auxin 0 to 50 μM, at least 200 cells per group
Text: We compared the effect of auxin concentration on cell elongation over a continuous period (4-6 days) using tobacco leaf protoplasts from wild type tobacco and from the tobacco line overexpressing AtPIN8 translationally fused with Venus fluorescent marker protein (PIN8VenusOx). Two strategies were used: • effect of PIN5 and PIN8 expression on cell elongation using transient transformation with dried DNA, protoplast immobilization and culture with manual cell imaging and tracking. • effect of auxin concentration (0, 1 pM, 10 pM, 100 pM, 500 pM, 1 nM, 10 nM, 100 nM, 500 nM, 1 μM, 2.5 μM, 5 μM, 10 μM, 25 μM and 50 μM) and quantitative analysis of cell elongation to compare wild type and PIN8VenusOx protoplasts using automated imaging (every 24 h for 4 days, 5 reference points) and computational image analysis.
Protoplasts were isolated and immobilized using our procedure described in the current patent application. Culture medium with final auxin concentration of 0, 1 pM, 10 pM, 100 pM, 500 pM, 1 nM, 10 nM, 100 nM, 500 nM, 1 μM, 2.5 μM, 5 μM. 10 μM. 25 μM and 50 μM was used for washing steps and cell culture afterwards in corresponding wells. […] This experiment allowed to extract quantitative information for hundreds cells per group, the whole experiment was performed in a single 96-well plate. […]

- effect on firefly/renilla ratio (auxin sensor construst): Concentration-dependent effect
Molecule: O=C(O)Cc1cccc2ccccc12 [NAA]

Molecule: amiR^P33: artificial miRNA TACGATTTGAACCATGAGGCC, SEQ ID NO:10 (expressed or natural sequence)
- rosette leaf phenotype of transgenic plants (PIN1; 2 weeks after germination): Altered phyllotaxis pattern of rosette leaves
- shoot phenotype of transgenic lines (PIN1): Altered shoot phyllotaxis and pin1-like shoot phenotypes

Molecule: auxin
- cell expansion of developing protoplasts [1]: Concentration-depended cell expansion
